The values below come from the NIST ThermoML archive (doi:10.1016/j.jct.2015.06.002).

The conditions of data set [1]: 298.15 K; Liquid; Gas chromatography.
A short description of data set [2]: Boiling temperature at pressure P. The settings on record: Liquid, Gas chromatography.

Numbers after ± are expanded uncertainties.

As usually defined, the vapor or sublimation pressure is the equilibrium pressure above the liquid or solid.

For `C/C=C/C=C/CCCCCCCO` [(E,E)-8,10-dodecadien-1-ol], the “vapor or sublimation pressure” value in data set [1] is reported as 8.3e-05 ± 2.5e-05 kPa. Moreover, the entries for the “Boiling temperature at pressure P” value in data set [2] (0.267 kPa) and in data set [2] (101.33 kPa) were 116 ± 20 °C and 276.0 ± 20 °C, respectively.
